Legend:
[1] = Stability under a high temperature/humidity condition (HPLC purity after aging); type: physicochemical; settings: for Purity after 1 week / Purity after 2 weeks / Purity after 4 weeks / Purity after 8 weeks / Initial purity: HPLC; for Initial purity: before aging
Protocol: The long-term storage stabilities of anhydrous crystalline forms of docetaxel prepared in Examples 1, 4, 5, and 6, respectively were compared with that of docetaxel trihydrate prepared according to the method of U.S. Pat. No. 6,022,985 by subjecting sample thereof to aging under a high temperature/humidity condition (60±2° C.; 75±5% relative humidity). The amounts of the original compound in each sample after 1, 2, 4 and 8 weeks were determined by high performance liquid chromatography (HPLC).

[2] = Storage for 7 days at 40° C. under a relative humidity of 25% to 50%; type: physicochemical; settings: comparable condition: 7 days, relative humidity 25% to 50%
[3] = 60±2° C., 75±5% relative humidity

Purity after 1 week [1, 3] [%]	Purity after 2 weeks [1, 3] [%]	Purity after 4 weeks [1, 3] [%]	Purity after 8 weeks [1, 3] [%]	Initial purity [1] [%]	Storage stability under a high temperature/humidity condition (in words) ([1]; 60±2° C., 75±5% relative humidity, up to 8 weeks)	Dehydration during storage [2]	Compound
99.7	99.7	99.6	99.6	99.7	–	–	CC(=O)O[C@@]12CO[C@@H]1C[C@H](O)[C@@]1(C)C(=O)[C@H](O)C3=C(C)[C@@H](OC(=O)[C@H](O)[C@@H](NC(=O)OC(C)(C)C)c4ccccc4)C[C@@](O)([C@@H](OC(=O)c4ccccc4)[C@H]21)C3(C)C [Example 5, docetaxel]
99.3	99.0	98.7	–	99.4	rapid degradation	at least 50%	CC(=O)O[C@@]12CO[C@@H]1C[C@H](O)[C@@]1(C)C(=O)[C@H](O)C3=C(C)[C@@H](OC(=O)[C@H](O)[C@@H](NC(=O)OC(C)(C)C)c4ccccc4)C[C@@](O)([C@@H](OC(=O)c4ccccc4)[C@H]21)C3(C)C [Docetaxel trihydrate, docetaxel trihydrate, reference compound]

Second part, the molecule before the results:

Compound	Purity after 1 week [1, 3] [%]	Purity after 2 weeks [1, 3] [%]	Purity after 4 weeks [1, 3] [%]	Purity after 8 weeks [1, 3] [%]	Initial purity [1] [%]	Storage stability under a high temperature/humidity condition (in words) ([1]; 60±2° C., 75±5% relative humidity, up to 8 weeks)	Dehydration during storage [2]
CC(=O)O[C@@]12CO[C@@H]1C[C@H](O)[C@@]1(C)C(=O)[C@H](O)C3=C(C)[C@@H](OC(=O)[C@H](O)[C@@H](NC(=O)OC(C)(C)C)c4ccccc4)C[C@@](O)([C@@H](OC(=O)c4ccccc4)[C@H]21)C3(C)C [Example 6, docetaxel]	99.7	99.7	99.6	99.5	99.7	–	–
CC(=O)O[C@@]12CO[C@@H]1C[C@H](O)[C@@]1(C)C(=O)[C@H](O)C3=C(C)[C@@H](OC(=O)[C@H](O)[C@@H](NC(=O)OC(C)(C)C)c4ccccc4)C[C@@](O)([C@@H](OC(=O)c4ccccc4)[C@H]21)C3(C)C [Example 4, docetaxel]	99.8	99.7	99.6	99.5	99.8	–	–
CC(=O)O[C@@]12CO[C@@H]1C[C@H](O)[C@@]1(C)C(=O)[C@H](O)C3=C(C)[C@@H](OC(=O)[C@H](O)[C@@H](NC(=O)OC(C)(C)C)c4ccccc4)C[C@@](O)([C@@H](OC(=O)c4ccccc4)[C@H]21)C3(C)C [Example 1, docetaxel]	99.8	99.8	99.7	99.6	99.8	–	–

From patent US20100099897A1, “STABLE ANHYDROUS CRYSTALLINE DOCETAXEL AND METHOD FOR THE PREPARATION THEREOF” (HANMI PHARM. CO., LTD., priority 2007, published 2010)
